Results from patent US5409946A, “Isoxazole, isothiazole and pyrazole compounds that enhance cognitive function” (Abbott Laboratories, priority 1993, dated 1995).
“Also recorded” adds a separate entry of the source. Structures can show the parent of a compound that is named as a salt. Where two headings read alike, the source gives them in different places.

How the values were obtained:
[1] = target: neuronal nicotinic receptors; experiment: Displacement of [3H]-MCC or [3H]-cytisine from neuronal nicotinic receptors, whole rat brain membranes; type: binding; details: Table 1, read-out: Nicotinic Receptor Ki
Method: Binding of [^3 H]-methylcarbamylcholine ([^3 H]-MCC) or [^3 H]-cytisine ([^3 H]-CYT) to nicotinic receptors was accomplished using crude synaptic membrane preparations from whole rat brain (Snyder and Enna, Brain Research, 1975, 100:81). Washed membranes were stored at -80° C. prior to use. Frozen aliquots were slowly thawed and resuspended in 20 volumes of buffer (containing: 120 mM NaCl, 5 mM KCl, 2 mM MgCl2, 2 mM CaCl2 and 50 mM Tris-Cl, pH 7.4 @4° C). After centrifuging at 20,000 X g for 15 minutes, the pellets were resuspended in 30 volumes of buffer. Homogenate (containing 125-150 μg protein) was added to triplicate tubes containing concentrations of test compound and [^3 H]-MCC (3 nM) in a final volume of 500 μL. Samples were incubated for 60 minutes at 4° C., then rapidly filtered through Whatman GF/B filters presoaked in 0.5% polyethylimine using 3×4 mL of ice-cold buffer. Alternately, homogenate and test compound were incubated for 75 min with [^3 H]-CYT (1.3 nM), then rapidly filtered, as described above. The filters are counted in 4 mL of Ecolume® (ICN). […] IC50 values were determined with the ALLFIT nonlinear least squares curve-fitting program and IC50 values were converted to Ki values using the Cheng and Prusoff correction (Ki =IC50 /(1+[ligand]/Kd of ligand)). Alternately, data were expressed as a percentage of the total specific binding.

[2] = test system: effects of ethanol; details: rats; cited from earlier work
[3] = test system: ethanol-induced narcosis; type: in vivo, male CD1 mice
Excerpt: It is known that administration of ethanol to mice induces a state of narcosis in the animals. […] It is also known that certain compounds can modify the narcotic effect of ethanol in this model.
Animals: Male CD1 mice (Charles-River Co., Portage, Mich.) weighing 25-30 g were used in the experiments. Upon arrival they were caged in groups of 14 and allowed to acclimatize to laboratory conditions for one week before the beginning of the studies. They were fed standard rodent diet with food and water ad libitum.
Duration of sleep time: Mice received intraperitoneal (i.p.) injections of ethanol and either saline or one of the drug treatments. Upon loss of the righting reflex, a timer was started to record the duration of the sleep time until the reflex was recovered. Two types of experiments were conducted to study the effect of drugs before (pre-treatment) or after (post-treatment) the injection of the narcotic dose of ethanol. In the pre-treatment experiments the drugs were injected i.p., 15 minutes before ethanol. In the post-treatment experiments the drugs were administered i.p., 1 minute after the animals lost the righting reflex, which was approximately 5 minutes after administration of ethanol.
Drugs: Ethanol was prepared as a 20% v/v (16% w/v) solution in saline. Based on previous studies, a dose of 87 mmol/kg (4 g/kg) was selected as the narcotic dose. RO 15-4513, the benzodiazepine receptor inverse agonist discussed in the Background section, was purchased from RBI (Natick, Mass.). It was dissolved in saline solution with Tween-80 and ultrasonically homogenized for 3 minutes. […] The compounds of Examples 2 and 4, both novel neuronal nicotinic receptor ligands according to the present invention, were also dissolved in saline to the desired concentrations.

[4] = in vivo; cited from earlier work
[5] = test system: cholinergic receptors located in the heart and in cortical tissues; details: cited from earlier work
[6] = post-treatment, i.p., p<0.05, one-tailed t test

Row | SMILES | Ki [1] [nM] | other results
1 | Cc1cc([C@@H]2CCCN2C)[nH]n1 [Example 43, 3-methyl-5-(1-methyl-2(S)-pyrrolidinyl)-pyrazole hydrochloride] | 228 | 
2 | CCOC(=O)c1ncn2c1CN(C)C(=O)c1cc(N=[N+]=[N-])ccc1-2 [RO 15-4513] |  | antagonism of the effects of ethanol [2]: selectively antagonize the effects of ethanol in rats; Sleeping time ([3]; post-treatment, 1 μmol/kg i.p.): 84 ± 14 % of controls; Sleeping time ([3]; post-treatment, 3 μmol/kg i.p., statistically significant): 165 ± 22 % of controls; Sleeping time ([3]; post-treatment, 10 μmol/kg i.p.): 118 ± 13 % of controls; Sleeping time ([3]; post-treatment, 30 μmol/kg i.p.): 73 ± 11 % of controls; effect of post-treatment on ethanol-induced narcosis [3, 6]: significantly prolonged the narcotic effect of ethanol; also recorded: adversely potentiated the narcotic effect; Sleeping time ([3]; pre-treatment, 1 μmol/kg i.p.): 101 ± 9 % of controls; Sleeping time ([3]; pre-treatment, 3 μmol/kg i.p.): 107 ± 19 % of controls; Sleeping time ([3]; pre-treatment, 10 μmol/kg i.p.): 79 ± 6 % of controls; Sleeping time ([3]; pre-treatment, 30 μmol/kg i.p., statistically significant): 57 ± 14 % of controls; effect of pre-treatment on ethanol sleeping time ([3]; pre-treatment, i.p., p<0.05, one-tailed t test): significantly reduced the sleeping time of ethanol in mice
3 | CN1CCC[C@H]1c1cc(C(F)(F)F)no1 [Example 32, 3-trifluoromethyl-5-(1-methyl-2(S)-pyrrolidinyl)-isoxazole, hydrochloride] | 6.1 | 
4 | Cc1cc([C@@H]2CCCN2C)n(-c2ccccc2)n1 [Example 42, 3-methyl-5-(1-methyl-2(S)-pyrrolidinyl)-1-phenyl-pyrazole hydrochloride] | 145 | 
5 | CN1CCC[C@H]1c1cc(Cc2ccccc2)no1 [Example 8, 3-Benzyl-5-(1-methyl-2(S)-pyrrolidinyl)-isoxazole hydrochloride salt] |  | Ki ([1]; hydrochloride salt): 13 nM
6 | Cc1cc([C@H]2CCCN2C)on1 [Example 16, 3-Methyl-5-(1-methyl-2(R)-pyrrolidinyl)-isoxazole hydrochloride salt] | 55 | 
7 | CN1CCC[C@H]1c1cc(Cc2ccccc2)no1 [Example 7, 3-Benzyl-5-(1-methyl-2(S)-pyrrolidinyl)-isoxazole oxalate salt] |  | Ki ([1]; oxalate salt): 18 nM
8 | CCc1cc([C@@H]2CCCN2)on1 [Example 3, 3-Ethyl-5-(2(S)-pyrrolidinyl)-isoxazole oxalate salt] | 621 | 
9 | COc1cc([C@@H]2CCCN2C)on1 [Example 29, 5-(1-methyl-2(S)-pyrrolidinyl-3-methoxy-isoxazole hydrochloride] | 62 | 
10 | Cc1cc([C@H]2CCCN2)on1 [Example 14] | 10 | 
11 | Cc1noc([C@@H]2CCCN2C)c1Cc1ccccc1 [Example 36, 3-methyl-5-(1-methyl-2(S)-pyrrolidinyl)-4-(phenylmethyl-isoxazole hydrochloride] | 77.6 | 
12 | Cc1cc([C@H]2CCCN2)on1 [Example 15, 3-Methyl-5-(2(R)-pyrrolidinyl)-isoxazole benzoate salt] | 7 | 
13 | Cc1cc([C@H]2CC[C@H](C)N2C)on1 (relative stereo) [Example 25, 3-Methyl-5-(trans-1,5-dimethyl-2-pyrrolidinyl)-isoxazole oxalate salt] | 289 | 
14 | Cc1cc([C@H]2C[C@H](O)CN2C)on1 (relative stereo) [Example 21, 3-Methyl-5-(trans-4-hydroxy-1-methyl-2-pyrrolidinyl)-isoxazole oxalate salt] | 114 | 
15 | Cc1cc([C@@H]2CCCN2C)on1 [Example 11, 3-Methyl-5-(1-methyl-2(S)-pyrrolidinyl)-isoxazole hydrochloride salt] |  | Ki ([1]; hydrochloride salt): 3 nM
16 | Cc1cc([C@@H]2CCCCN2)on1 [Example 40, 3-methyl-5-(2(S)-piperidinyl)-isoxazole hydrochloride] | 283 | 
17 | C[N+](C)(C)CCOC(N)=O [carbachol] |  | CNS penetration [4]: poor CNS penetration
18 | Cc1cc([C@@H]2CCCN2)on1 [Example 1, 3-Methyl-5-(2(S)-pyrrolidinyl)-isoxazole oxalate salt] | 289 | 

Row | SMILES | Ki [1] [nM] | other results
19 | CCN1C(=O)CC2(CCN(C)CC2)C1=O [RS-86] |  | agonism at cardiac receptors ([5]; cardiac): full agonist; agonism at cortical receptors ([5]; cortical): partial agonist
20 | COCc1cc([C@@H]2CCCN2C)on1 [Example 20, 3-Methoxymethyl-5-(1-methyl-2(S)-pyrrolidinyl)-isoxazole fumarate salt] | 22 | 
21 | Cc1cc([C@H]2C[C@H](C)CN2C)on1 (relative stereo) [Example 24, 3-Methyl-5-(trans-1,4-dimethyl-2-pyrrolidinyl)-isoxazole oxalate salt] | 24 | 
22 | CCCCc1cc([C@@H]2CCCN2C)on1 [Example 10, 3-n-Butyl-5-(1-methyl-2(S)-pyrrolidinyl)-isoxazole hydrochloride salt] | 24 | 
23 | Cc1cc([C@H]2CCCCN2C)on1 [Example 39, 3-methyl-5-(1-methyl-2(R)-piperidinyl)-isoxazole hydrochloride] | 357 | 
24 | CCN1CCC[C@H]1c1cc(C)no1 [Example 13, 5-(1-Ethyl-2(S)-pyrrolidinyl)-3-methyl-isoxazole hydrochloride salt] | 34 | 
25 | Cc1cc([C@H]2C[C@H](CF)CN2C)on1 (relative stereo) [Example 22, 3-Methyl-5-(trans-4-fluoromethyl-1-methyl-2-pyrrolidinyl)-isoxazole hydrochloride] | 183 | 
26 | CCc1cc([C@@H]2CCCN2C)on1 [Example 12, 3-Ethyl-5-(1-methyl-2(S)-pyrrolidinyl)-isoxazole hydrochloride salt] |  | Ki ([1]; hydrochloride salt): 7 nM
27 | Cc1cc([C@@H]2CCN2C)on1 [Example 41, 3-methyl-5-(1-methyl-2(S)-azetidinyl)-isoxazole hydrochloride] | 2.5 | 
28 | CCc1cc([C@@H]2CCCN2C)on1.O=C(O)C(=O)O [Example 4, 3-Ethyl-5-(1-methyl-2(S)-pyrrolidinyl)-isoxazole oxalate salt] |  | Sleeping time ([3]; post-treatment, 0.062 μmol/kg i.p.): 73 ± 12 % of controls; Sleeping time ([3]; post-treatment, 0.19 μmol/kg i.p.): 61 ± 7 % of controls; Sleeping time ([3]; post-treatment, 0.62 μmol/kg i.p.): 59 ± 8 % of controls; effect of post-treatment on ethanol-induced narcosis [3, 6]: significantly reduced; Ki ([1]; oxalate salt): 9 nM
29 | CCN1C[C@H](C)C[C@H]1c1cc(C)no1 [Example 28c, trans-5-(1-ethyl-4-methyl-2(S)-pyrrolidinyl)-3-methyl-isoxazole hydrochloride] | 21 | 
30 | CCc1c(C)noc1[C@@H]1CCCN1C [Example 37, 3-methyl-5-(1-methyl-2(S)-pyrrolidinyl)-4-ethyl-isoxazole hydrochloride] | 105 | 
31 | CCCc1cc([C@@H]2CCCN2C)on1 [Example 9, 5-(1-Methyl-2(S)-pyrrolidinyl)-3-propyl-isoxazole hyrochloride salt] | 14 | 
32 | Cc1cc([C@H]2CCCN2)sn1 [Example 19, 3-methyl-5-((2(R)-pyrrolidinyl)-isothiazole hydrochloride] | 228 | 
33 | CCc1cc([C@H]2CCCN2)on1 [Example 17, 3-Ethyl-5-(2(R)-pyrrolidinyl)-isoxazole oxalate salt] | 12 | 
34 | Cc1cc([C@H]2CCCCN2)on1 [Example 38, 3-methyl-5-(2(R)-piperidinyl)-isoxazole hydrochloride] | 386 | 
35 | Cc1cc([C@@H]2C[C@@H](C)CN2C)on1 [Example 28d, trans-5-(1-methyl-4-methyl-2(S)-pyrrolidinyl)-3-methyl-isoxazole hydrochloride] | 17.1 | 
36 | CN1CCC[C@H]1c1cc(Br)no1 [Example 27, 3-Bromo-5-(1-methyl-2(S)-pyrrolidinyl)-isoxazole hydrochloride] | 7.7 | 
